# Data published in ChEMBL document CHEMBL1201862, “PubChem BioAssay data set” (2004).
#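 How tested: cells in 96-well plates exposed to compound for 48 hours at five concentrations. GI50: concentration for 50% inhibition of growth.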 Activity calls are given as the source filed them. No stated cut-off is given here; in the data, active = GI50 up to about 1.1 µM and inactive = higher.
# How the values were obtained:
# Experiment in all cases: NCI anticancer screen, dose series, 48 h
# 786-0 = tested on: 786-0
# A498 = tested on: A498
# A549 = tested on: A549
# ACHN = tested on: ACHN
# BT-549 = tested on: BT-549
# CAKI-1 = tested on: CAKI-1
# CCRF-CEM = tested on: CCRF-CEM
# COLO 205 = tested on: COLO 205
# DU-145 = tested on: DU-145
# EKVX = tested on: EKVX
# HCC 2998 = tested on: HCC 2998
# HCT-116 = tested on: HCT-116
# HCT-15 = tested on: HCT-15
# HL-60 = tested on: HL-60
# HOP-92 = tested on: HOP-92
# HT-29 = tested on: HT-29
# Hs-578T = tested on: Hs-578T
# IGROV-1 = tested on: IGROV-1
# K562 = tested on: K562
# KM12 = tested on: KM12
# LOX IMVI = tested on: LOX IMVI
# M14 = tested on: M14
# MCF7 = tested on: MCF7
# MDA-MB-231 = tested on: MDA-MB-231
# MDA-MB-435 = tested on: MDA-MB-435
# MDA-N = tested on: MDA-N
# MOLT-4 = tested on: MOLT-4
# Malme-3M = tested on: Malme-3M
# NCI-H226 = tested on: NCI-H226
# NCI-H23 = tested on: NCI-H23
# NCI-H460 = tested on: NCI-H460
# NCI-H522 = tested on: NCI-H522
# NCI/ADR-RES = tested on: NCI/ADR-RES
# OVCAR-3 = tested on: OVCAR-3
# OVCAR-4 = tested on: OVCAR-4
# OVCAR-5 = tested on: OVCAR-5
# OVCAR-8 = tested on: OVCAR-8
# PC-3 = tested on: PC-3
# RPMI-8226 = tested on: RPMI-8226
# RXF 393 = tested on: RXF 393
# SF-268 = tested on: SF-268
# SF-295 = tested on: SF-295
# SF-539 = tested on: SF-539
# SK-MEL-28 = tested on: SK-MEL-28
# SK-MEL-2 = tested on: SK-MEL-2
# SK-MEL-5 = tested on: SK-MEL-5
# SK-OV-3 = tested on: SK-OV-3
# SN12C = tested on: SN12C
# SNB-19 = tested on: SNB-19
# SNB-75 = tested on: SNB-75
# SR = tested on: SR
# SW-620 = tested on: SW-620
# T47D = tested on: T47D
# TK-10 = tested on: TK-10
# U-251 = tested on: U-251
# UACC-257 = tested on: UACC-257
# UACC-62 = tested on: UACC-62
# UO-31 = tested on: UO-31
# HOP-62 = tested on: HOP-62
structure (smiles),measurement,setting,value
[O-][S+]1SC(=S)C2C=CC=CC21 (configuration not stated),GI50,786-0,> 100 µM (inactive)
same,GI50,A498,93.1 µM (inactive)
same,GI50,A549,38.2 µM (inactive)
same,GI50,ACHN,> 100 µM (inactive)
same,GI50,BT-549,> 100 µM (inactive)
same,GI50,CAKI-1,> 100 µM (inactive)
same,GI50,CCRF-CEM,2.37 µM (inactive)
same,GI50,COLO 205,> 100 µM (inactive)
same,GI50,DU-145,> 100 µM (inactive)
same,GI50,EKVX,57.5 µM (inactive)
same,GI50,HCC 2998,> 100 µM (inactive)
same,GI50,HCT-116,85.5 µM (inactive)
same,GI50,HCT-15,40.9 µM
same,GI50,HL-60,1.62 µM (inactive)
same,GI50,HOP-92,> 100 µM (inactive)
same,GI50,HT-29,45.3 µM (inactive)
same,GI50,Hs-578T,84.3 µM (inactive)
same,GI50,IGROV-1,49.1 µM (inactive)
same,GI50,K562,> 100 µM (inactive)
same,GI50,KM12,> 100 µM (inactive)
same,GI50,LOX IMVI,34.7 µM (inactive)
same,GI50,M14,23.2 µM (inactive)
same,GI50,MCF7,76.9 µM (inactive)
same,GI50,MDA-MB-231,> 100 µM (inactive)
same,GI50,MDA-MB-435,80 µM (inactive)
same,GI50,MDA-N,40.8 µM (inactive)
same,GI50,MOLT-4,> 100 µM (inactive)
same,GI50,Malme-3M,95.9 µM (inactive)
same,GI50,NCI-H226,59.6 µM (inactive)
same,GI50,NCI-H23,> 100 µM (inactive)
same,GI50,NCI-H460,34 µM (inactive)
same,GI50,NCI-H522,76.2 µM (inactive)
same,GI50,NCI/ADR-RES,> 100 µM (inactive)
same,GI50,OVCAR-3,> 100 µM (inactive)
same,GI50,OVCAR-4,> 100 µM (inactive)
same,GI50,OVCAR-5,> 100 µM (inactive)
same,GI50,OVCAR-8,> 100 µM (inactive)
same,GI50,PC-3,> 100 µM (inactive)
same,GI50,RPMI-8226,92.9 µM (inactive)
same,GI50,RXF 393,> 100 µM (inactive)
same,GI50,SF-268,> 100 µM (inactive)
same,GI50,SF-295,88.9 µM (inactive)
same,GI50,SF-539,> 100 µM (inactive)
same,GI50,SK-MEL-28,> 100 µM (inactive)
same,GI50,SK-MEL-2,> 100 µM (inactive)
same,GI50,SK-MEL-5,29.4 µM (inactive)
same,GI50,SK-OV-3,> 100 µM (inactive)
same,GI50,SN12C,> 100 µM (inactive)
same,GI50,SNB-19,48.4 µM (inactive)
same,GI50,SNB-75,74 µM (inactive)
same,GI50,SR,> 100 µM (inactive)
same,GI50,SW-620,> 100 µM (inactive)
same,GI50,T47D,> 100 µM (inactive)
same,GI50,TK-10,> 100 µM (inactive)
same,GI50,U-251,> 100 µM (inactive)
same,GI50,UACC-257,75.5 µM (inactive)
same,GI50,UACC-62,58.5 µM (inactive)
same,GI50,UO-31,36.8 µM (inactive)
C[C@]12OC(=O)[C@]3(O)CC[C@H]4[C@@H](C[C@@H](O)[C@@]5(Cl)CC=CC(=O)[C@]45C)[C@]45OCC6C(=O)O[C@@H]1C[C@@]6(C)[C@H](C4=O)[C@@]32O5 (some centres not stated),GI50,786-0,0.617 µM (active)
same,GI50,A498,1.37 µM (inactive)
same,GI50,A549,3.37 µM (inactive)
same,GI50,ACHN,1.05 µM (active)
same,GI50,BT-549,0.586 µM (active)
same,GI50,CAKI-1,0.787 µM (active)
same,GI50,CCRF-CEM,0.22 µM (active)
same,GI50,COLO 205,0.867 µM (active)
same,GI50,DU-145,3.82 µM (inactive)
same,GI50,EKVX,1.24 µM (inactive)
same,GI50,HCC 2998,0.0946 µM (active)
same,GI50,HCT-116,0.656 µM (active)
same,GI50,HCT-15,1.46 µM
same,GI50,HL-60,0.356 µM (active)
same,GI50,HOP-62,2.78 µM (inactive)
same,GI50,HOP-92,1.42 µM (inactive)
same,GI50,HT-29,1.55 µM (inactive)
same,GI50,Hs-578T,6.44 µM (inactive)
same,GI50,IGROV-1,1 µM (active)
same,GI50,K562,0.469 µM (active)
same,GI50,KM12,2.15 µM (inactive)
same,GI50,LOX IMVI,0.951 µM (active)
same,GI50,M14,1.13 µM (inactive)
same,GI50,MCF7,0.774 µM (active)
same,GI50,MDA-MB-231,3.02 µM (inactive)
same,GI50,MDA-MB-435,2 µM (inactive)
same,GI50,MDA-N,1.16 µM (inactive)
same,GI50,MOLT-4,0.615 µM (active)
same,GI50,Malme-3M,1.3 µM (inactive)
same,GI50,NCI-H226,1.91 µM (inactive)
same,GI50,NCI-H23,0.542 µM (active)
same,GI50,NCI-H460,1.89 µM (inactive)
same,GI50,NCI-H522,0.16 µM (active)
same,GI50,NCI/ADR-RES,2.6 µM (inactive)
same,GI50,OVCAR-3,1.5 µM (inactive)
same,GI50,OVCAR-4,3.78 µM (inactive)
same,GI50,OVCAR-5,1.4 µM (inactive)
same,GI50,OVCAR-8,1.41 µM (inactive)
same,GI50,PC-3,2.3 µM (inactive)
same,GI50,RPMI-8226,0.596 µM (active)
same,GI50,RXF 393,0.283 µM (active)
same,GI50,SF-268,0.767 µM (active)
same,GI50,SF-295,3.05 µM (inactive)
same,GI50,SF-539,0.759 µM (active)
same,GI50,SK-MEL-28,1.49 µM (inactive)
same,GI50,SK-MEL-2,1.17 µM (inactive)
same,GI50,SK-MEL-5,1.56 µM (inactive)
same,GI50,SK-OV-3,3.5 µM (inactive)
same,GI50,SN12C,1.86 µM (inactive)
same,GI50,SNB-19,5.73 µM (inactive)
same,GI50,SNB-75,9.31 µM (inactive)
same,GI50,SR,0.811 µM (active)
same,GI50,SW-620,0.494 µM (active)
same,GI50,T47D,1.82 µM (inactive)
same,GI50,TK-10,1.6 µM (inactive)
same,GI50,U-251,1.5 µM (inactive)
same,GI50,UACC-257,2.01 µM (inactive)
same,GI50,UACC-62,0.879 µM (active)
same,GI50,UO-31,1.23 µM (inactive)
